Data from US10272081B2, “SHIP1 modulators and methods related thereto” (Aquinox Pharmaceuticals (Canada) Inc., priority 2013, dated 2019).

What was measured:
His-hSHIP1 enzyme [1] = target: T1, His-hSHIP1 enzyme (Homo sapiens, UniProt Q92835); experiment: His-hSHIP1 activity, approach 2 (ratio of initial velocities IP4 25/IP4 250); format: biochemical; design: key: +++: higher than reference or reference - 15%; ++: reference - 16% to reference - 30%; +: reference - 31% or lower; conditions: ratio of initial velocities IP4 25/IP4 250 versus reference SHIP1 activator; asterisk in Table 2
T1 construct: His
T1 sequence (Q92835 1-1189): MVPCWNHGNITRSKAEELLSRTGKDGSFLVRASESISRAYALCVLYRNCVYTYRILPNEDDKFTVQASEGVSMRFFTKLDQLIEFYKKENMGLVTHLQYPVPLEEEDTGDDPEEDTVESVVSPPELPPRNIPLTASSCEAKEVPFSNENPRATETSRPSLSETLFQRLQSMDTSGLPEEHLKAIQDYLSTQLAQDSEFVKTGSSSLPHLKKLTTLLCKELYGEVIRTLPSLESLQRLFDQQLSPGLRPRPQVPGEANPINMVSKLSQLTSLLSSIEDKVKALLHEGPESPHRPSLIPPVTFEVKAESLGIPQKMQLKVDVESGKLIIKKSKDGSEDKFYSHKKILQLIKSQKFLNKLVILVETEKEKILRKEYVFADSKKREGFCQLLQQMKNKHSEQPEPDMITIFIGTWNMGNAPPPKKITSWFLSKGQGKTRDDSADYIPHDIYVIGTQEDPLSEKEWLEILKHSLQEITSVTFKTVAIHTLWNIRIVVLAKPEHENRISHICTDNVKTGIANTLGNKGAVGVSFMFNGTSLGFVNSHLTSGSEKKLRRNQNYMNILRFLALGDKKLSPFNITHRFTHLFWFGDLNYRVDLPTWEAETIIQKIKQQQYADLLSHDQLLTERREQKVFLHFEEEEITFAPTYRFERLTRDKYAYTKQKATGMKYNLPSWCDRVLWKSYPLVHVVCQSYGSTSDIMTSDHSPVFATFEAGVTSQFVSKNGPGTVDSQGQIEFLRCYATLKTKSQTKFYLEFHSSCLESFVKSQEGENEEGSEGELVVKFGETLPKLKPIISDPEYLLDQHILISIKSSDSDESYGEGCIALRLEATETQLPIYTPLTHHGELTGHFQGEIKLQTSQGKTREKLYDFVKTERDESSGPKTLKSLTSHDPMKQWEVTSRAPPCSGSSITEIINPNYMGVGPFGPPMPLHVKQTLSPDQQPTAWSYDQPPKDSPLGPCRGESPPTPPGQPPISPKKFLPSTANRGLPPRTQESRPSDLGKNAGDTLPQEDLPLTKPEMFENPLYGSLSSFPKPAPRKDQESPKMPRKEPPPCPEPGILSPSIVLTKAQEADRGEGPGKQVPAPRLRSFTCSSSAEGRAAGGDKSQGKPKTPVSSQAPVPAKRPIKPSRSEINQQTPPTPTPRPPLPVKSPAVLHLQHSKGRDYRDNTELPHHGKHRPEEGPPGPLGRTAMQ
Protocol: (§1) Test compounds are dissolved in 95% ethanol to form stock solutions. Before screening, the stock solutions are diluted with Phosphatase Assay Buffer (20 mM Tris-HCL, 10 mM MgCl2 pH 7.5, 0.02% Tween 20) to form working assay solutions that contain 10% ethanol. The assay is carried out on 96-well microtiter plates using a modified procedure of that reported by Ong et al., Blood 110, 1942-1949, 2007 and Yang et al., Org Lett 7, 1073-1076, 2005, both of which references are incorporated herein by reference in their entirety.
In the second approach, a master mix is prepared that contains […] (0.4-1.6 ng/μL final), 25 μL of the substrate, IP4 (25 or 250 μM final), and 50 μL of test compound in 3.3% ethanol ([…]). Control blanks are also prepared by replacing His-hSHIP1 enzyme, IP4, or test compounds with Phosphate Assay Buffer. […] Each reaction component is preincubated at 37° C. for 30 min before adding to a 96-well microtiter plate. The master mix is then incubated at 37° C. At time 0, 20, 25 and 30 min, 25 μL of the master mix is removed and transferred to a new 96-well microtiter plate, to which 100 μL of Biomol Green Reagent is added to stop the reaction. After incubating the mixture for 20 min at room temperature for color development, the absorbance is read with SpectraMax Plus 96-well plate reader at a wavelength of 650 nm. Phosphate released is plotted against time to calculate the initial velocities (i.e., slope of the graph) at each IP4 concentration. The initial velocities are baseline corrected and the ratio of initial velocities (IP425/IP4250) is calculated and used to rate the test compounds.

His-hSHIP1 enzyme [2] = target: T1, His-hSHIP1 enzyme; experiment: His-hSHIP1 activity, approach 1 (phosphate release from IP4, Biomol Green); format: biochemical; conditions: activation of His-hSHIP1; IP4 50 μM; test compound 0-300 μM; no asterisk in Table 2
Protocol: as §1
Data were generated by one of two variant methods. Test compounds are screened by one of two approaches described as follows. In the first approach, each reaction contains 5 μL of His-hSHIP1 enzyme (5-20 ng), 10 μL of the substrate, 1,3,4,5-inositol tetrakisphosphate (IP4; 50 μM final), 5 μL of Phosphatase Assay Buffer, and 5 µL of test compound at various concentrations in 10% ethanol (0-300 μM final). Control blanks are also prepared by replacing His-hSHIP1 enzyme, IP4, or test compounds with Phosphatase Assay Buffer. After adding the reaction components in a 96-well microtiter plate on ice, the reaction is mixed by briefly shaking the plate vigorously. The reaction is then incubated at 37° C. for 15 min with gentle shaking followed by addition of 100 μL of Biomol Green Reagent (BIOMOL, Pa., USA) to terminate the reaction. The free phosphate released from IP4 by His-hSHIP1 binds to the Biomol Green Reagent, which turns the dye to green color. After incubating the mixture for 20 min at room temperature for color development, the absorbance is read with SpectraMax Plus 96-well plate reader (Molecular Devices, Sunnyvale, Calif., USA) at a wavelength of 650 nm.

Scoring, Approach 2 (Initial velocity Ratio) (His-hSHIP1 enzyme [1])	Scoring, Approach 1 (% increase relative to background) (His-hSHIP1 enzyme [2])	SMILES
++	–	COc1cc(OC)cc(C(=O)C2=C(C)[C@H](O)C[C@H]3C(C)(C)CCC[C@]23C)c1 [Compound No. 142, (2R,4aS,8aS)-4-[(3,5-dimethoxyphenyl)carbonyl]-3,4a,8,8-tetramethyl-1,2,4a,5,6,7,8,8a-octahydronaphthalen-2-ol]
++	–	Cc1cc(O)cc(C(=O)[C@H]2[C@H](C)[C@H](N)C[C@H]3C(C)(C)CCC[C@]23C)c1 [Compound No. 136, 3-{[(1S,2S,3R,4aS,8aS)-3-amino-2,5,5,8a-tetramethyl-decahydronaphthalen-1-yl]carbonyl}-5-methylphenol]
+	–	C[C@@H]1[C@H](NS(C)(=O)=O)C[C@H]2C(C)(C)CCC[C@]2(C)[C@H]1C(=O)c1cc(O)cc(O)c1 [Compound No. 179, N-[(2R,3S,4S,4aS,8aS)-4-[(3,5-dihydroxyphenyl)carbonyl]-3,4a,8,8-tetramethyl-decahydronaphthalen-2-yl]methanesulfonamide]
++	–	Cc1cc(O)cc(C(=O)[C@H]2[C@H](C)[C@H](NCc3cnc[nH]3)C[C@H]3C(C)(C)CCC[C@]23C)c1 [Compound No. 137, 3-{[(1S,2S,3R,4aS,8aS)-3-[(1H-imidazol-5-ylmethyl)amino]-2,5,5,8a-tetramethyl-decahydronaphthalen-1-yl]carbonyl}-5-methylphenol]
++	–	C[C@H]1CC[C@H]2C(C)(C)CCC[C@]2(C)[C@H]1CC(=O)Nc1cc(O)cc(O)c1 [Compound No. 149, 2-[(1S,2S,4aS,8aR)-2,5,5,8a-tetramethyl-decahydronaphthalen-1-yl]-N-(3,5-dihydroxyphenyl)acetamide]
+++	–	C[C@@H]1[C@H](NC(=O)CNS(=O)(=O)c2ccccc2C(=O)O)C[C@H]2C(C)(C)CCC[C@]2(C)[C@H]1C(=O)c1cc(O)cc(O)c1 [Compound No. 181, 2-[({[(2R,3S,4S,4aS,8aS)-4-[(3,5-dihydroxyphenyl)carbonyl]-3,4a,8,8-tetramethyl-decahydronaphthalen-2-yl]carbamoyl}methyl)sulfamoyl]benzoic acid]
+++	–	COc1cc(OC)cc(S(=O)(=O)C[C@H]2C(C)C(O)C[C@H]3C(C)(C)CCC[C@]23C)c1 (stereo partly drawn) [Compound No. 173, (4S,4aS,8aS)-4-{[(3,5-dimethoxybenzene)sulfonyl]methyl}-3,4a,8,8-tetramethyl-decahydronaphthalen-2-ol]
+	–	C=C1[C@H](C(=O)c2cc(OC)cc(OC)c2)[C@@]2(C)CCCC(C)(C)[C@@H]2C[C@H]1O [Compound No. 141, (2R,4R,4aS,8aS)-4-[(3,5-dimethoxyphenyl)carbonyl]-4a,8,8-trimethyl-3-methylidene-decahydronaphthalen-2-ol]
+++	–	COc1cc(OC)cc(C(O)[C@@H]2[C@@]3(C)CCCC(C)(C)[C@@H]3CC[C@@]2(C)O)c1 (stereo partly drawn) [Compound No. 49, (1S,2R,4aS,8aS)-1-[(3,5-dimethoxyphenyl)(hydroxy)methyl]-2,5,5,8a-tetramethyl-decahydronaphthalen-2-ol]
+++	–	C[C@@H]1[C@H](NC(=O)Nc2cccnc2)C[C@H]2C(C)(C)CCC[C@]2(C)[C@H]1C(=O)c1cc(O)cc(O)c1 [Compound No. 118, 3-[(2R,3S,4S,4aS,8aS)-4-[(3,5-dihydroxyphenyl)carbonyl]-3,4a,8,8-tetramethyl-decahydronaphthalen-2-yl]-1-(pyridin-3-yl)urea]
++	–	C[C@@H]1[C@H](NCc2cnc[nH]2)C[C@H]2C(C)(C)CCC[C@]2(C)[C@H]1C(=O)c1cc(O)cc(O)c1 [Compound No. 119, 5-{[(1S,2S,3R,4aS,8aS)-3-[(1H-imidazol-5-ylmethyl)amino]-2,5,5,8a-tetramethyl-decahydronaphthalen-1-yl]carbonyl}benzene-1,3-diol]
++	–	Cc1cc(O)cc(C(=O)[C@H]2[C@H](C)[C@H](NC(=O)Nc3cccnc3)C[C@H]3C(C)(C)CCC[C@]23C)c1 [Compound No. 138, 3-[(2R,3S,4S,4aS,8aS)-4-[(3-hydroxy-5-methylphenyl)carbonyl]-3,4a,8,8-tetramethyl-decahydronaphthalen-2-yl]-1-(pyridin-3-yl)urea]
++	–	Cc1cc(O)cc(C(=O)[C@H]2[C@H](C)[C@H](NC(=N)N)C[C@H]3C(C)(C)CCC[C@]23C)c1 [Compound No. 175, 1-[(2R,3S,4S,4aS,8aS)-4-[(3-hydroxy-5-methylphenyl)carbonyl]-3,4a,8,8-tetramethyl-decahydronaphthalen-2-yl]guanidine]
++	–	CC(=O)N[C@@H]1C[C@H]2C(C)(C)CCC[C@]2(C)[C@@H](C(=O)c2cc(C)cc(O)c2)[C@@H]1C [Compound No. 139, N-[(2R,3S,4S,4aS,8aS)-4-[(3-hydroxy-5-methylphenyl)carbonyl]-3,4a,8,8-tetramethyl-decahydronaphthalen-2-yl]acetamide]
–	+ (0 < x < 50)	CC1=C(C(=O)Nc2cc(O)cc(O)c2)[C@@]2(C)CCCC(C)(C)[C@@H]2CC1 [Compound No. 43, (4aS,8aS)-N-(3,5-dihydroxyphenyl)-2,5,5,8a-tetramethyl-3,4,4a,5,6,7,8,8a-octahydronaphthalene-1-carboxamide]
–	++ (50 ≤ x < 65)	COc1cc(OC)cc(C(=O)C[C@H]2[C@@H](C)CC[C@H]3C(C)(C)CCC[C@]23C)c1 [Compound No. 46, 2-[(1S,2S,4aS,8aR)-2,5,5,8a-tetramethyl-decahydronaphthalen-1-yl]-1-(3,5-dimethoxyphenyl)ethan-1-one]
–	+ (0 < x < 50)	Cc1cc(O)cc(C(=O)C2[C@@H](C)[C@H](O)C[C@H]3C(C)(C)CCC[C@]23C)c1 (stereo partly drawn) [Compound No. 9, (2R,3R,4aS,8aS)-4-[(3-hydroxy-5-methylphenyl)carbonyl]-3,4a,8,8-tetramethyl-decahydronaphthalen-2-ol]
